Data reported in patent publication US9062033B2, “Chemical compounds” (Rottapharm Biotech S.r.l., priority 2011, dated 2015).

Columns and labels:
human OX2 receptors = target: T1, human OX2 receptors (Homo sapiens, UniProt O43614); assay: Antagonistic activity against human OX2 receptor, [Ca2+]i fluorimetry (Fluo-4NW) in transfected HEK-293 cells activated with orexin-B; format: cell-based; settings: for Kb: HEK-293 cells transfected with human recombinant OX2, orexin-B 10 nM, pKb = co-logarithm of apparent dissociation constant, modified Cheng Prusoff; for pKb OX2: comparison table with compound of WO2011006960
T1 construct: expressed in transfected cells; host or cells: HEK-293 cells
T1 sequence (O43614 1-444): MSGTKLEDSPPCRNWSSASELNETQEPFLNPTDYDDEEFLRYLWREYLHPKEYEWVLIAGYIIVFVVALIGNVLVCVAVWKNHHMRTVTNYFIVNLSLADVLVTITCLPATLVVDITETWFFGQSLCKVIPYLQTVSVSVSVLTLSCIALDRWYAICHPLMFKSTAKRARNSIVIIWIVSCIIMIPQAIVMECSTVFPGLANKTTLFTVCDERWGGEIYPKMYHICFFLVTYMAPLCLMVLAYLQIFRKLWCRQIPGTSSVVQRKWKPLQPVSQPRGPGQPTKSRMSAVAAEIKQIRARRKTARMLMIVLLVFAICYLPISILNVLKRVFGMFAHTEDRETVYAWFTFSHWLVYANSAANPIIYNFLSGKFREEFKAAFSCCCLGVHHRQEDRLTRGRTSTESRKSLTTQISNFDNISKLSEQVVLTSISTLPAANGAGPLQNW
Method: (§1) In a typical experiment, the antagonistic activity against human OX1 and OX2 receptors is determined by using CHO e HEK-293 cells transfected with human recombinant OX1 and OX2 receptors respectively, seeded at density of 2 and 3×10^4 cells/well respectively in a 96 fluorimetry well plate. Thus the plate was loaded with the calcium dye (Fluo-4NW/probenecid in HBSS, Hepes 20 mM, pH 7.4; Invitrogen) at 37° C. for 60 min. Afterward the temperature was equilibrated at 22° C. for 15 min and the [Ca2+]i measured directly on the plate by using a fluorescent plate reader (CellLux Perkin Elmer).
(§2) Invention compounds were dissolved in DMSO, diluted in HBSS (DMSO, 0.3% final) and added to the wells. After 5 min CHO cells were activated with orexin-A, 3 nM while HEK-293 cells were activated with orexin-B, 10 nM.
(§3) The compounds, dissolved in DMSO and diluted in the medium (DMSO, 0.3% final), have been analysed in the 1 nM-1 μM concentration range (every concentration in duplicate). The antagonistic activity has been expressed as pKb (co-logarithm of the apparent dissociation constant calculated by using the modified Cheng Prusoff equation).
(§4) The results are expressed as percent of control specific […] response ((measured specific response/control specific agonist response)×100) obtained in the presence of the test compounds.
(§5) The IC50 values (concentration causing a half-maximal inhibition of the control specific agonist response) were determinated by non-linear regression analysis of the concentration curves generated with mean replicate values using hill equation curve fitting. The IC50 values are obtained by the arithmetical mean of at least two experiments. Compounds of the following example tested according to this example gave pKbs as follows: […]

human OX1 receptors = target: T2, human OX1 receptors (Homo sapiens, UniProt O43613); assay: Antagonistic activity against human OX1 receptor, [Ca2+]i fluorimetry (Fluo-4NW) in transfected CHO cells activated with orexin-A; format: cell-based; settings: for Kb: CHO cells transfected with human recombinant OX1, orexin-A 3 nM, pKb = co-logarithm of apparent dissociation constant, modified Cheng Prusoff; for pKb OX1: comparison table with compound of WO2011006960
T2 construct: expressed in transfected cells; host or cells: CHO cells
T2 sequence (O43613 1-425): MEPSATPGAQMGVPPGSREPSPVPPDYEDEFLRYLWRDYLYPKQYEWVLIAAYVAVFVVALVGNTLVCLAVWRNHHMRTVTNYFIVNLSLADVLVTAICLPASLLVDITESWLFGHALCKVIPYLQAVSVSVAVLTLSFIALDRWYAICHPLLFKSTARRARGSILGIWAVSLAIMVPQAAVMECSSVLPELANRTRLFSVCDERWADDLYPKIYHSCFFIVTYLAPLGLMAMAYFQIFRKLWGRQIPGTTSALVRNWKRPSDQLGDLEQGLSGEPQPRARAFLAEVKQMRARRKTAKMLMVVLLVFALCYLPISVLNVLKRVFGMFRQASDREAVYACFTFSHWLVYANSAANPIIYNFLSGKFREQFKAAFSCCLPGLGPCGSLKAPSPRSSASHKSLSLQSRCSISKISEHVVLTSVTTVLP
Method: as §1, §2, §3, §4, §5

Kb (human OX2 receptors) [nM] | Kb (human OX1 receptors) [nM] | pKb OX2 (human OX2 receptors) | pKb OX1 (human OX1 receptors) | Compound
25.1 | 50.1 |  |  | Cc1cccc(NC[C@@H]2CC3(CC3)CN2C(=O)c2nc(C)sc2-c2ccccc2)n1 [Compound 2c, (S)-(2-methyl-5-phenylthiazol-4-yl)(6-(((6-methylpyridin-2-yl)amino)methyl)-5-azaspiro[2.4]heptan-5-yl)methanone]
63.1 | 7.94 |  |  | O=C(c1cc(Cl)ccc1-c1ncccn1)N1CC2(CC2)C[C@H]1CNc1ccc(C(F)(F)F)cn1 [Compound 1a, (S)-(5-chloro-2-(pyrimidin-2-yl)phenyl)(6-(((5-(trifluoromethyl)pyridin-2-yl)amino)methyl)-5-azaspiro[2.4]heptan-5-yl)methanone]
12.6 | 7.94 |  |  | O=C(c1cc(Cl)ccc1-c1ncccn1)N1CC2(CC2)C[C@H]1CNc1cc(C(F)(F)F)ccn1 [Compound 1f, (S)-(5-chloro-2-(pyrimidin-2-yl)phenyl)(6-(((4-(trifluoromethyl)pyridin-2-yl)amino)methyl)-5-azaspiro[2.4]heptan-5-yl)methanone]
31.6 | 39.8 |  |  | Cc1ccc(-c2ccc(C)nc2C(=O)N2CC3(CC3)C[C@H]2CNc2ccc(C(F)(F)F)cn2)c(F)c1 [Compound E4, (S)-(3-(2-fluoro-4-methylphenyl)-6-methylpyridin-2-yl)(6-(((5-(trifluoromethyl)pyridin-2-yl)amino)methyl)-5-azaspiro[2.4]heptan-5-yl)methanone]
251 | 2 | 6.6 | 8.7 | Cc1ccc(-c2ncccn2)c(C(=O)N2CC3(CC3)C[C@H]2CNc2ccc(C(F)(F)F)cn2)c1 [Compound 1o, (S)-(5-methyl-2-(pyrimidin-2-yl)phenyl)(6-(((5-(trifluoromethyl)pyridin-2-yl)amino)methyl)-5-azaspiro[2.4]heptan-5-yl)methanone]
25.1 | 126 |  |  | Cc1ccc(-c2ncccn2)c(C(=O)N2CC3(CC3)C[C@H]2CNc2nccc3ncccc23)n1 [Compound 3p, (S)-(6-(((1,6-naphthyridin-5-yl)amino)methyl)-5-azaspiro[2.4]heptan-5-yl)(6-methyl-3-(pyrimidin-2-yl)pyridin-2-yl)methanone]
7.94 | 10 |  |  | N#Cc1ccc(-c2ncccn2)c(C(=O)N2CC3(CC3)C[C@H]2CNc2ccc(C(F)(F)F)cn2)c1 [Compound E12, (S)-4-(pyrimidin-2-yl)-3-(6-(((5-(trifluoromethyl)-pyridin-2-yl)amino)methyl)-5-azaspiro[2.4]heptane-5-carbonyl)benzonitrile]
158 | 158 |  |  | Cc1nc(C(=O)N2CC3(CC3)C[C@H]2CNc2ncc(Cl)cn2)c(-c2ccccc2)s1 [Compound 2g, (S)-(6-(((5-chloropyrimidin-2-yl)amino)methyl)-5-azaspiro[2.4]heptan-5-yl)(2-methyl-5-phenylthiazol-4-yl)methanone]
15.8 | 1.26 |  |  | Cc1ccc(-n2ccc(C)n2)c(C(=O)N2CC3(CC3)C[C@H]2CNc2ccc(C(F)(F)F)cn2)n1 [Compound 3j, (S)-(6-methyl-3-(3-methyl-1H-pyrazol-1-yl)pyridin-2-yl)(6-(((5-(trifluoromethyl)pyridin-2-yl)amino)-methyl)-5-azaspiro[2.4]heptan-5-yl)methanone]
15.8 | 39.8 |  |  | Cc1ccc(OCc2ccc(F)cc2)c(C(=O)N2CC3(CC3)C[C@H]2CNc2ccc(C(F)(F)F)cn2)n1 [Compound 3m, (S)-(3((4-fluorobenzyl)oxy)-6-methylpyridin-2-yl)(6-(((5-(trifluoromethyl)pyridin-2-yl)amino)methyl)-5-azaspiro[2.4]heptan-5-yl)methanone]
126 | 3.98 |  |  | O=C(c1ncccc1-c1ccccn1)N1CC2(CC2)C[C@H]1CNc1ccc(C(F)(F)F)cn1 [Compound E7, (S)-[2,3′-bipyridin]-2′-yl(6-(((5-(trifluoromethyl)pyridin-2-yl)amino)methyl)-5-azaspiro[2.4]heptan-5-yl)methanone]
5.01 | 6.31 |  |  | Cc1ccc(OCc2cc(F)cc(F)c2)c(C(=O)N2CC3(CC3)C[C@H]2CNc2ccc(C(F)(F)F)cn2)n1 [Compound 3o, (S)-(3-((3,5-difluorobenzyl)oxy)-6-methylpyridin-2-yl)(6-(((5-(trifluoromethyl)pyridin-2-yl)amino)methyl)-5-azaspiro[2.4]heptan-5-yl)methanone]
2.51 | 2.51 |  |  | Cc1nc(C(=O)N2CC3(CC3)C[C@H]2CNc2nccc3ccccc23)c(-c2ccccc2)s1 [Compound 2e, (S)-(6-((isoquinolin-1-ylamino)methyl)-5-azaspiro[2.4]heptan-5-yl)(2-methyl-5-phenylthiazol-4-yl)methanone]
20 | 7.94 |  |  | O=C(c1cc(Cl)ccc1-c1ncccn1)N1CC2(CC2)C[C@H]1CNc1cc(C(F)(F)F)c(Cl)cn1 [Compound 1t, (S)-(5-chloro-2-(pyrimidin-2-yl)phenyl)(6-(((5-chloro-4-(trifluoromethyl)pyridin-2-yl)amino)methyl)-5-azaspiro[2.4]heptan-5-yl)methanone]
20 | 3.98 |  |  | Cc1nc(C(=O)N2CC3(CC3)C[C@H]2CNc2ccc(C(F)(F)F)cn2)c(-c2ccccc2)s1 [Compound 2d, (S)-(2-methyl-5-phenylthiazol-4-yl)(6-(((5-(trifluoromethyl)pyridin-2-yl)amino)methyl)-5-azaspiro[2.4]heptan-5-yl)methanone]
79.4 | 200 |  |  | CS(=O)(=O)c1ccc(-c2ccccc2)c(C(=O)N2CC3(CC3)C[C@H]2CNc2ccc(C(F)(F)F)cn2)c1 [Compound 1d, (S)-(4-(methylsulfonyl)-[1,1′-biphenyl]-2-yl)(6-(((5-(trifluoromethyl)pyridin-2-yl)amino)methyl)-5-azaspiro[2.4]heptan-5-yl)methanone]
15.8 | 50.1 | 7.8 | 7.3 | Cc1ccc(-c2ncccn2)c(C(=O)N2CC3(CC3)C[C@H]2CNc2cc(C(F)(F)F)ccn2)c1 [Compound 1n, (S)-(5-methyl-2-(pyrimidin-2-yl)phenyl)(6-(((4-(trifluoromethyl)pyridin-2-yl)amino)methyl)-5-azaspiro[2.4]heptan-5-yl)methanone]
10 | 6.31 |  |  | Cc1ccc(-c2ncccn2)c(C(=O)N2CC3(CC3)C[C@H]2CNc2cc(C(F)(F)F)c(Cl)cn2)c1 [Compound 1r, (S)-(6-(((5-chloro-4-(trifluoromethyl)pyridin-2-yl)amino)methyl)-5-azaspiro[2.4]heptan-5-yl)(5-methyl-2-(pyrimidin-2-yl)phenyl)methanone]
20 | 79.4 |  |  | Cc1ccc(-c2ncccn2)c(C(=O)N2CC3(CC3)C[C@H]2CNc2nccc(C(F)(F)F)n2)c1 [Compound 1p, (S)-(5-methyl-2-(pyrimidin-2-yl)phenyl)(6-(((4-(trifluoromethyl)pyrimidin-2-yl)amino)methyl)-5-azaspiro[2.4]heptan-5-yl)methanone]
12.6 | 2.51 |  |  | O=C(c1nc(C2CC2)ccc1-c1ccccc1)N1CC2(CC2)C[C@H]1CNc1ccc(C(F)(F)F)cn1 [Compound 3r, (S)-(6-cyclopropyl-3-phenylpyridin-2-yl)(6-(((5-(trifluoromethyl)pyridin-2-yl)amino)methyl)-5-azaspiro[2.4]heptan-5-yl)methanone]
